The values that follow come from ChEMBL document CHEMBL1201862, “PubChem BioAssay data set” (2004).

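Briefly, cells in 96-well plates were exposed to five compound concentrations for 48 h, and endpoints were estimated by linear interpolation. GI50 = concentration required for 50% inhibition of growth.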 Calls of active or inactive are those of the source. No stated cut-off is given here; in the data, active = GI50 up to about 1.1 µM and inactive = higher.

Experiment in all cases: NCI-60 cell line screen, 48 h
The test system of assay [1] is UACC-62.
The test system of assay [2] is EKVX.
The subject of assay [3] is HCT-15.
The test system of assay [4] is SF-268.
Assay [5] relates to KM12.
For assay [6], the system named is UO-31.
Assay [7] has as its system MDA-MB-435.
The subject of assay [8] is U-251.
Assay [9] relates to HCC 2998.
Assay [10] deals with MDA-MB-231.
Assay [11] concerns MOLT-4.
Assay [12] has as its system Hs-578T.
Assay [13] has as its system DU-145.
The subject of assay [14] is OVCAR-5.
The test system of assay [15] is CCRF-CEM.
Assay [16] relates to SNB-19.
In assay [17] the test system is 786-0.
For assay [18], the system named is CAKI-1.
The test system of assay [19] is COLO 205.
Assay [20] concerns NCI/ADR-RES.

As to `COC(=O)c1c[nH]c2c1-c1cc(C(=O)OCc3ccccc3)n(S(=O)(=O)c3ccc(C)cc3)c1C(=O)C2=O`, the GI50 was 0.188 µM (active) in assay [1]; 0.173 µM (active) in assay [2]; 0.194 µM in assay [3]; 0.234 µM (active) in assay [4]; 0.25 µM (active) in assay [5]; 0.327 µM (active) in assay [6]. Besides, the GI50 in assay [7] was 0.0318 µM (active); in [8] it was 0.317 µM (active); in assay [9], 0.578 µM (active); in assay [10] it was 0.0481 µM (active); in assay [11], 0.356 µM (active); in assay [12], 0.578 µM (active). For the same compound, the GI50 in assay [13] is 0.154 µM (active); in assay [14], 1.56 µM (inactive); in assay [15], 0.346 µM (active); in [16] it was 0.193 µM (active); in assay [17], 0.22 µM (active); in assay [18] it was 1.31 µM (inactive). In addition, the GI50 in [19] is 0.805 µM (active); in assay [20] it was 0.45 µM (active).
Regarding `O=S(=O)(c1ccc(Br)cc1)n1c2ccc(Br)cc2c2nc3ccccc3nc21`, the GI50 in assay [1] was 38.3 µM (inactive); in [2] it was > 100 µM (inactive); in [3] it was over 100 µM; in assay [4], 85.9 µM (inactive); in assay [5] it was > 100 µM (inactive); in [6], > 100 µM (inactive). Besides, the GI50 in assay [7] was > 100 µM (inactive); in assay [8], 23.2 µM (inactive); in assay [9] it was > 100 µM (inactive); in assay [10], 50.5 µM (inactive); in assay [11], > 100 µM (inactive); in [12], 47.6 µM (inactive). In addition, the GI50 was > 100 µM (inactive) in assay [13]; > 100 µM (inactive) in assay [14]; 14.1 µM (inactive) in assay [15]; 49.3 µM (inactive) in assay [16]; 31.6 µM (inactive) in assay [17]; > 100 µM (inactive) in assay [18]. In addition, the GI50 in [19] and in assay [20] was > 100 µM (inactive) in each case.
In the case of `CC1CC[C@@]2(OC1)OC1C[C@H]3[C@@H]4CC[C@H]5CC(OC6OC(CO)C(OC7OC(CO)C(O)C(O)C7OC7OC(CO)C(O)C(O)C7O)C(O)C6O)CCC5(C)[C@H]4CCC3(C)C1[C@@H]2C` (some centres undefined), the GI50 was 8.95 µM (inactive) in [1]; 0.977 µM (active) in [2]; 10.3 µM in assay [3]; 2.75 µM (inactive) in assay [4]; 3.33 µM (inactive) in [5]; 0.993 µM (active) in assay [6]. Besides, the GI50 in assay [7] is 2.65 µM (inactive); in [8] it was 1.1 µM (active); in assay [9] it was 1.04 µM (active); in assay [10], 0.929 µM (active); in [11] it was 1.29 µM (inactive); in assay [12] it was 1.99 µM (inactive). Besides, the GI50 in assay [13] was 0.975 µM (active); in assay [14], 2.25 µM (inactive); in [15], 1.35 µM (inactive); in [16], 3.37 µM (inactive); in [17], 1.56 µM (inactive); in assay [18], 3.21 µM (inactive). The GI50 was 0.955 µM (active) in [19] and 6.38 µM (inactive) in [20].
`COC1/C=C/C(C)C(C(C)C(OC)C(C)CCC(=O)C(C)C(C/C=C/N(C)C=O)OC)OC(=O)C=CC2OC2(C)CC(OC)C(OC)C2=CC(=O)O[C@@H](C(C)C(OC)CC(OC)/C=C/C(C)C(O)C1)[C@H]2O` (some centres undefined): the GI50 is 0.0201 µM (active) in [1]; 0.00562 µM (active) in assay [2]; 0.00631 µM in assay [3]; 0.00451 µM (active) in assay [4]; 0.00708 µM (active) in assay [5]; 0.00308 µM (active) in assay [6]. For the same compound, the GI50 in assay [7] is 0.0137 µM (active); in [8] it was 0.0146 µM (active); in assay [9], 0.00569 µM (active); in assay [10] it was 0.0032 µM (active); in assay [11] it was 0.00527 µM (active); in [12] it was 0.00448 µM (active). Moreover, the GI50 in [13] was 0.00938 µM (active); in assay [14], 0.0105 µM (active); in assay [15], 0.00935 µM (active); in [16], 0.0121 µM (active); in [17] it was 0.00451 µM (active); in [18], 0.00267 µM (active). Also, the values for the GI50 in assay [19] and in assay [20] were 0.0016 µM (active) and 0.0254 µM (active), respectively.
For `COc1ccc(C(=O)c2[nH]c(Nc3ccc(Cl)cc3)c(C(=S)Nc3ccccc3)c2N)cc1`, the GI50 in assay [1] is > 100 µM (inactive); in [2], > 100 µM (inactive); in assay [3], over 100 µM; in assay [4] it was > 100 µM (inactive); in assay [5] it was > 100 µM (inactive); in assay [6], > 100 µM (inactive). Further, the GI50 in assay [7], in assay [9], in assay [10], in assay [11], in assay [12] and in [13] was > 100 µM (inactive) in each case. Moreover, the GI50 in assay [14], in assay [15], in [16], in [17], in [18] and in assay [19] was > 100 µM (inactive) throughout. Besides, in assay [20], the GI50 was > 100 µM (inactive).
Consider `CC1(c2nc3ccccc3[nH]2)CCC(C(N)=O)C(C)(C)O1` (centres undefined), for which the GI50 is > 100 µM (inactive) in assay [1]; > 100 µM (inactive) in assay [2]; over 100 µM in [3]; > 100 µM (inactive) in [4]; > 100 µM (inactive) in [5]; > 100 µM (inactive) in [6]. For the same compound, the GI50 in [7], in assay [8], in assay [9], in [10], in assay [11] and in assay [12] was > 100 µM (inactive) each time. For the same compound, the GI50 in [13], in assay [14], in [15], in assay [16], in [17] and in assay [18] was > 100 µM (inactive) in each case. For the same compound, the GI50 in [19] and in [20] was > 100 µM (inactive) each time.
For `Cc1cc(O)nc2c3c(ccc12)OC(C)(C)C=C3`, the GI50 in assay [1] is 5.01 µM (inactive); in [2], 14.9 µM (inactive); in [3], 4.85 µM; in assay [4], 6.7 µM (inactive); in assay [5], 4.28 µM (inactive); in [6], 8.18 µM (inactive). For the same compound, the GI50 is 1.82 µM (inactive) in assay [7]; 3.11 µM (inactive) in assay [8]; 9.55 µM (inactive) in assay [9]; 5.78 µM (inactive) in assay [10]; 5.16 µM (inactive) in [11]; 3.52 µM (inactive) in assay [12]. Also, the GI50 in assay [13] was 3.58 µM (inactive); in assay [14], 9.62 µM (inactive); in assay [15], 3.71 µM (inactive); in assay [16], 4.55 µM (inactive); in assay [17] it was 6.7 µM (inactive); in [18], 5.93 µM (inactive). Besides, the GI50 in [19] is 2.89 µM (inactive); in assay [20], 3.99 µM (inactive).
